The source made the active and inactive calls.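 How the source made its calls: active means signal decrease with fitted half-maximal dose at or below ten times the highest valid tested dose; inconclusive means poor fit, or flat fit at 30 to 70% inhibition; inactive means the rest.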
Biological target: Zinc finger protein mex-5 (Caenorhabditis elegans) (UniProt Q9XUB2)
Experiment: MEX-5 zinc finger-RNA interaction blockers – biochemical, fluorescence polarization, C. elegans, cherry-picked, round 3, dose response (AID 493250)
Conditions: purified MEX-5-MBP, FITC-TCR2 RNA fluorescence polarization

Zinc finger protein mex-5 (Caenorhabditis elegans), sequence (Q9XUB2 whole entry, looked up): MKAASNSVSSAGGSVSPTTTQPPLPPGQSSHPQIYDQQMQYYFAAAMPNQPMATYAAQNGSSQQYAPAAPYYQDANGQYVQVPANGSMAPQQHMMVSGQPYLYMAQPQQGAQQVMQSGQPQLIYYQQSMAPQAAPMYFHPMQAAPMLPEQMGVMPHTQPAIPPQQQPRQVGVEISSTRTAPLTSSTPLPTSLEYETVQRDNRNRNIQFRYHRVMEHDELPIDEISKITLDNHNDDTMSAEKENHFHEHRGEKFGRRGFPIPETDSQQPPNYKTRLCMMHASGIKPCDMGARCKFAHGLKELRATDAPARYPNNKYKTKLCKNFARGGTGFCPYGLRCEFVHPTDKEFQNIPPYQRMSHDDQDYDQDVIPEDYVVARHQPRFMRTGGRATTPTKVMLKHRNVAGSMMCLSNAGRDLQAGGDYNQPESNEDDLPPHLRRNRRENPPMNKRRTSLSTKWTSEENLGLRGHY

SMILES | AC50
CCN(CC)Cc1c(O)ccc2c1O/C(=C\C=C\c1ccccc1)C2=O | 4.38 µM
O=C1C(Br)=Cc2cccc3cccc1c23 | 3.06 µM
CCCC1C2CN(C(C)C)CC=C2C(C#N)=C(N)C1(C#N)C#N (configuration not stated) | 4.99 µM
Cc1ccc2c(c1)c1nc3ccccc3nc1n2C | 6.78 µM
COc1ccc(OC)c(NC(=O)c2sc3nc(Cc4ccccc4)cc(C(F)(F)F)c3c2N)c1 | 6.44 µM
CCOC(=O)C1C(=O)C=C(/C=C/c2ccc(N(C)C)cc2)CC1c1ccccc1 (configuration not stated) | 7.41 µM

Same assay, conditions: purified MEX-5-MBP, FITC-TCR2 RNA fluorescence polarization; at 10 µM (top of the series)

SMILES | activity change, negative = inhibition
Cc1c(NC(=O)c2ccc(=O)oc2)c(=O)n(-c2ccccc2)n1C | inactive
CCc1nnc2c(N(C)C)nc3ccccc3n12 | inactive
Cc1c(C#N)c(O)[nH]c(=O)c1N=Nc1ccc(S(N)(=O)=O)cc1 | inactive
COc1cc(/C=N/NC(=O)CNS(=O)(=O)c2ccc(C)cc2)cc(OC)c1OC | inactive
CCOc1ccc2nc(N=Nc3c(O)[nH]c(=O)[nH]c3=O)sc2c1 | inactive
O=C1/C(=C\c2ccc(Br)o2)Cc2ccccc21 | inactive
O=C(Nc1cccc2ncccc12)c1ccccc1[N+](=O)[O-] | inactive
N#C/C(=N\Nc1cccc(C(F)(F)F)c1)C(=O)c1ccsc1 | inactive
Cn1cc(CNC(=O)C2c3ccccc3Oc3ccccc32)cn1 | inactive
COc1ccc(NCc2cccnc2)cc1 | inactive
O=C(O)c1[nH]c2ccccc2c1C(c1cc(Br)ccc1O)c1c(C(=O)O)[nH]c2ccccc12 | inactive
Cn1c(O)c(C2=c3ccccc3=NC2=O)[nH]c1=S | inactive
CC(=O)Nc1ccc(/C=C/c2nc(-c3ccccc3O)n[nH]2)cc1 | inactive
COc1ccc(/C=N/NC(=O)c2ccc(=O)[nH]n2)cc1OC | inactive
CC(=O)CCS(=O)(=O)c1ccc(Oc2ccc(S(=O)(=O)CCC(C)=O)cc2)cc1 | inactive
COc1cccc(NCc2cc(=O)oc3cc(C)c(O)cc23)c1 | inactive

SMILES | activity change, negative = inhibition
Nc1ccc(Cc2ccc(N)c(C(=O)O)c2)cc1C(=O)O | inactive
COC(=O)c1ccccc1-c1ccc(C(c2c(C)[nH][nH]c2=O)c2c(C)[nH][nH]c2=O)o1 | inactive
CC(=O)N1C(=O)/C(=C2\SC(=S)N(NC(=O)c3ccc(O)cc3)C2=O)c2ccccc21 | inactive
COC(=O)c1cc(NC(=O)c2ccccc2)c(=O)oc1C | inactive
COC(=O)c1ccc(CC(=O)c2ccc(O)cc2O)o1 | inactive
C#CCOCCOCCOCCNc1nc(N2CCN(C(=O)[C@H](CCCCN)n3cc(C(N)CO)nn3)CC2)nc(N2CCN(C(=O)[C@H](CCC(=O)O)n3cc(C(N)CC(C)C)nn3)CC2)n1 (some centres not stated) | inactive
CCc1nc2ccccc2c(=O)n1/N=C/c1ccc(OC)cc1 | inactive
COc1cc(/C=N/NC(=O)c2ccc(=O)[nH]n2)ccc1O | inactive
NC(=O)C(=O)N/N=C1\CCc2ccccc21 | inactive
Cc1nn(C(C)C(=O)NNC(=S)Nc2ccc(Cl)cc2)c(C)c1[N+](=O)[O-] (configuration not stated) | inactive
c1cncc(C2CC(c3cccs3)n3ncnc3N2)c1 (configuration not stated) | inactive
COc1ccc(OC)c(/C=N/NC(=O)c2ccc(=O)[nH]n2)c1 | inactive
COc1cc(/C=C2/C(C)=C(C#N)c3nc(N)c(C#N)c(C)c32)ccc1OCC(=O)O | inactive
COc1nc(N/N=C/c2ccc(-c3ccccc3[N+](=O)[O-])o2)nc(N2CCOCC2)n1 | inactive
Cc1ccc(C(=O)N/C(=C\c2ccc(-c3ccccc3[N+](=O)[O-])o2)C(=O)NCCN(C)C)cc1 | inactive

Source: PubChem BioAssay AID493250 (Broad Institute, 2011)
